Experimental data: US9446127B2, “Compositions including androgen receptor degradation (ARD) enhancers and methods of prophylactic or therapeutic treatment of skin disorders and hair loss” (AndroScience Corporation, priority 2007, dated 2016)
Positions count from the first letter of the chain named.

Legend:
[1] = molecular target: T1, androgen receptor (AR) (Homo sapiens, UniProt P10275); test: Specificity Western blot in T47D cell lysates, AR; format: cell-based; details: 5 or 10 micromolar, presence or absence of estrodial (E2)
T1 construct: Incubating T47D cells with ASC-J9 (5 or 10 micromolar) in the presence or absence of estrodial (E2) decreased the cellular concentrations of AR; endogenous in cells; host or cells: T47D
T1 sequence (P10275 1-920): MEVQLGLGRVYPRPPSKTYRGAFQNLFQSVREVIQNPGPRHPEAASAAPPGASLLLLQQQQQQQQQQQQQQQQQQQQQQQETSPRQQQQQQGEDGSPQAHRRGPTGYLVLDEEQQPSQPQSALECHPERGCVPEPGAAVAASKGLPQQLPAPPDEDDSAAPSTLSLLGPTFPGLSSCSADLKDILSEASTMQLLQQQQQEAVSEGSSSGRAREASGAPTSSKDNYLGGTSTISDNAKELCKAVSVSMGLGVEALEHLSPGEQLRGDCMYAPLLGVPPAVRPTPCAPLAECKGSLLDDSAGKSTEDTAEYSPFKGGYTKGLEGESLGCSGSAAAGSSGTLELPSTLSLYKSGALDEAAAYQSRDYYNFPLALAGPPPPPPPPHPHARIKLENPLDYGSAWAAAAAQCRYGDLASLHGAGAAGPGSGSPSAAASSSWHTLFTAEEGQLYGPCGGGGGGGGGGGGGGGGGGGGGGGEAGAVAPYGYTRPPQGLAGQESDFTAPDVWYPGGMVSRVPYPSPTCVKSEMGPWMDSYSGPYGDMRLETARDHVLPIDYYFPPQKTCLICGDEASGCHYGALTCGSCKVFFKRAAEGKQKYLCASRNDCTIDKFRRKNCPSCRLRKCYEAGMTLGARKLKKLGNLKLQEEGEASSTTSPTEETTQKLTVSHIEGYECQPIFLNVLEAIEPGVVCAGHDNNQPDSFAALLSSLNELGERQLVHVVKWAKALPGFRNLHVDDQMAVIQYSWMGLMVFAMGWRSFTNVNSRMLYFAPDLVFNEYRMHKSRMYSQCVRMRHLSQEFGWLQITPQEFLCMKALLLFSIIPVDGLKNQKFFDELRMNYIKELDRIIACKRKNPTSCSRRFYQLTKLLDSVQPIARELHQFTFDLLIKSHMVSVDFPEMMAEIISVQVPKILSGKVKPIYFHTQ
Experimental: Human prostate cancer LNCaP cells and T47D cells were plated at a density of 7×10^5 cells per 60 millimeter tissue culture dish in […] medium containing 10% FBS. The medium was changed to RPMI or DME medium containing 10% charcoal-stripped serum 24 hours later to deplete cellular androgens or estrogens. After another 24 hours, treatment with the test compounds began. The test dose of ASC-J9 was 1, and 5 and micromolar. LNCap cells also received dihydrotestosterone (DHT) (3 nanomolar). Control cells received a corresponding amount of the vehicle, dimethylsulfoxide (DMSO) (<0.04%) for an equivalent exposure time. Cells were incubated with ASC-J9 for 24 hours, and were lysed in 250 microliters of 1×SDS/PAGE loading buffer. Approximately 40 micrograms of total cellular protein was loaded in each lane of a pre-cast gel (NuPAGE, Invitrogen). Protein separation and transfer were performed following the manufacturer's instructions.

[2] = molecular target: T2, androgen receptor (AR) (Homo sapiens, UniProt P10275, T878A); test: AR degradation in LNCaP cells in the presence of cycloheximide (Western blot); format: cell-based; details: 20 micromolar, cycloheximide 15 micrograms/milliter
T2 construct: endogenous in cells; host or cells: LNCaP
T2 sequence (P10275 1-920 T878A): T1 sequence (P10275 1-920) with T878A
Experimental: To determine whether the observed reduction of AR protein levels was due to protein degradation rather than inhibition of AR protein synthesis, a second set of three replicate experiments was performed. In these experiments, the protein synthesis inhibitor cycloheximide (CHX) was used to prevent the cells from synthesizing new proteins. In the absence of new AR protein synthesis, any alterations in AR levels would be mainly attributable to protein degradation. LNCaP cells were cultured in the presence and absence of ASC-J9 (20 micromolar) and in the presence and absence of cycloheximide (15 micrograms/milliter). Cells were then incubated for 0, 3, 6 and 12 hours before harvesting and analysis of AR levels by Western blot.

With COc1ccc(C=CC(=O)C=C(O)C=Cc2ccc(OC)c(OC)c2)cc1OC [ASC-J9, 5-hydroxy-1,7-bis(3,4-dimethoxyphenyl)-1,4,6-heptatrien-3-one] as the compound, how does the “cellular concentration of AR” value [1] read?
The value was “decreased”.

What about the “time within which degradation of existing AR protein was enhanced” value [2] of the same compound?
Its value is no more than 4 h.
